Test results reported in US6355799B1, “Substituted benzene compounds, process for their preparation, and herbicidal and defoliant compositions containing them” (ISK Americas Incorporated, priority 1997, dated 2002).

What was measured:
Type in all cases: in vivo
[1] = tested on: lambsquarters (Chenopodium album, CHEAL); assay: Pre-emerge test, greenhouse herbicide activity screening; conditions: pre-emerge; for phytotoxicity rating CHEAL: 14 days after application, scale 0-100; for Pre-emerge Herbicidal Activity CHEAL: phytotoxicity rating 0-100 at 14 days after application
Method in brief: (§1)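 Rating: 0–100 visual injury, 14 DAA. Application: acetone, 187 l/ha, 15–1000 g ai/ha, flat-fan track sprayer with nozzle 40–45 cm above soil or canopy. Post-emerge runs used 0.25% v/v surfactant on 2–3 leaf plants.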

[2] = tested on: sicklepod (Cassia obtusifolia, CASOB); assay: as above; conditions: pre-emerge; for phytotoxicity rating CASOB: 14 days after application, scale 0-100; for Pre-emerge Herbicidal Activity CASOB: phytotoxicity rating 0-100 at 14 days after application
Method in brief: as §1

[3] = tested on: ivyleaf morningglory (Ipomoea hederacea, IPOHE); assay: as above; conditions: pre-emerge; for phytotoxicity rating IPOHE: 14 days after application, scale 0-100; for Pre-emerge Herbicidal Activity IPOHE: phytotoxicity rating 0-100 at 14 days after application
Method in brief: as §1

[4] = tested on: large crabgrass (Digitaria sanguinalis, DIGSA); assay: as above; conditions: pre-emerge; for phytotoxicity rating DIGSA: 14 days after application, scale 0-100; for Pre-emerge Herbicidal Activity DIGSA: phytotoxicity rating 0-100 at 14 days after application
Method in brief: as §1

[5] = tested on: green foxtail (Setaria viridis, SETVI); assay: as above; conditions: pre-emerge; for phytotoxicity rating SETVI: 14 days after application, scale 0-100; for Pre-emerge Herbicidal Activity SETVI: phytotoxicity rating 0-100 at 14 days after application
Method in brief: as §1

[6] = tested on: johnsongrass (Sorghum halepense, SORHA); assay: as above; conditions: pre-emerge; for phytotoxicity rating SORHA: 14 days after application, scale 0-100; for Pre-emerge Herbicidal Activity SORHA: phytotoxicity rating 0-100 at 14 days after application
Method in brief: as §1

[7] = tested on: barnyardgrass (Echinochloa crus-galli, ECHCG); assay: as above; conditions: pre-emerge; for phytotoxicity rating ECHCG: 14 days after application, scale 0-100; for Pre-emerge Herbicidal Activity ECHCG: phytotoxicity rating 0-100 at 14 days after application
Method in brief: as §1

[8] = tested on: velvetleaf (Abutilon theophrasti, ABUTH); assay: as above; conditions: pre-emerge; for phytotoxicity rating ABUTH: 14 days after application, scale 0-100; for Pre-emerge Herbicidal Activity ABUTH: phytotoxicity rating 0-100 at 14 days after application
Method in brief: as §1

[9] = tested on: sicklepod (Cassia obtusifolia, CASOB); assay: Post-emerge test, greenhouse herbicide activity screening; conditions: post-emerge, 14 days after application, rating scale 0-100
Method in brief: as §1

[10] = tested on: ivyleaf morningglory (Ipomoea hederacea, IPOHE); assay: as above; conditions: post-emerge, 14 days after application, rating scale 0-100
Method in brief: as §1

[11] = tested on: large crabgrass (Digitaria sanguinalis, DIGSA); assay: as above; conditions: post-emerge, 14 days after application, rating scale 0-100
Method in brief: as §1

[12] = tested on: green foxtail (Setaria viridis, SETVI); assay: as above; conditions: post-emerge, 14 days after application, rating scale 0-100
Method in brief: as §1

[13] = tested on: barnyardgrass (Echinochloa crus-galli, ECHCG); assay: as above; conditions: post-emerge, 14 days after application, rating scale 0-100
Method in brief: as §1

[14] = tested on: redroot pigweed (Amaranthus retroflexus, AMARE); assay: as above; conditions: post-emerge, 14 days after application, rating scale 0-100
Method in brief: as §1

[15] = tested on: velvetleaf (Abutilon theophrasti, ABUTH); assay: as above; conditions: post-emerge, 14 days after application, rating scale 0-100
Method in brief: as §1

[16] = tested on: field corn (Zea mays L., var. Dekalb 535, CORN); assay: Pre-emerge test, crop safety; conditions: pre-emerge; for phytotoxicity rating CORN (crop damage): 14 days after application, scale 0-100; for Pre-emerge Herbicidal Activity CORN: crop damage, phytotoxicity rating 0-100 at 14 days after application
Method in brief: (§2)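 Visual ratings on a 0-100 scale (0 no damage, 100 all plants dead) were taken at 14 days after treatment. Rates of 15-1000 g ai/ha in acetone, 187 l/ha, were sprayed onto soil one day after planting (pre-emerge) or onto 2-3 leaf plants with 0.25% v/v surfactant (post-emerge).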

[17] = tested on: upland rice (Oryza sp., var. Tebonnet, RICE); assay: Pre-emerge test, crop safety; conditions: pre-emerge; for phytotoxicity rating RICE (crop damage): 14 days after application, scale 0-100; for Pre-emerge Herbicidal Activity RICE: crop damage, phytotoxicity rating 0-100 at 14 days after application
Method in brief: as §2

[18] = tested on: redroot pigweed (Amaranthus retroflexus, AMARE); assay: Pre-emerge test, greenhouse herbicide activity screening; conditions: pre-emerge; for phytotoxicity rating AMARE: 14 days after application, scale 0-100; for Pre-emerge Herbicidal Activity AMARE: phytotoxicity rating 0-100 at 14 days after application
Method in brief: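 Compounds in acetone were track-sprayed at 15-1000 g ai/ha (187 l/ha) on sandy loam pots: pre-emerge one day after seeding, post-emerge at 2-3 leaf stage with 0.25% v/v non-ionic surfactant. Phytotoxicity was rated 14 days later on a 0 (no damage) to 100 (complete death) scale.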

[19] = tested on: field corn (Zea mays L., var. Dekalb 535, CORN); assay: Post-emerge test, crop safety; conditions: post-emerge, 14 days after application, rating scale 0-100
Method in brief: (§3)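 Plants grown in 10 cm pots of sandy loam mix received acetone-dissolved compounds through a moving flat-fan nozzle. Doses ranged from 15 to 1000 g ai/ha. Pre-emerge pots were seeded one day earlier, post-emerge pots 8–21 days earlier. Fourteen days on, each pot was graded 0–100 for damage.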

[20] = tested on: upland rice (Oryza sp., var. Tebonnet, RICE); assay: Post-emerge test, crop safety; conditions: post-emerge, 14 days after application, rating scale 0-100
Method in brief: as §3

**Q.** How did the “phytotoxicity rating CHEAL” value ([1]; 63 g ai/ha) turn out when `COc1c(Cl)cc(Cl)c(-n2c(=O)cc(C(F)(F)F)n(C)c2=O)c1NC(=O)c1ccc2ccccc2c1` [2-144] was run?
**A.** 100

**Q.** What about the “phytotoxicity rating CHEAL” value ([1]; 250 g ai/ha) of the same molecule?
**A.** 100

**Q.** And the “phytotoxicity rating CASOB” value ([2]; 63 g ai/ha)?
**A.** 0

**Q.** And the “phytotoxicity rating CASOB” value ([2]; 250 g ai/ha)?
**A.** 20

**Q.** And the “phytotoxicity rating IPOHE” value ([3]; 63 g ai/ha)?
**A.** 0

**Q.** And the “phytotoxicity rating IPOHE” value ([3]; 250 g ai/ha)?
**A.** 30

**Q.** What about the “phytotoxicity rating DIGSA” value ([4]; 63 g ai/ha) of the same molecule?
**A.** 20

**Q.** What about the “phytotoxicity rating DIGSA” value ([4]; 250 g ai/ha) of the same molecule?
**A.** 70

**Q.** What about the “phytotoxicity rating SETVI” value ([5]; 63 g ai/ha) of the same molecule?
**A.** 40

**Q.** What about the “phytotoxicity rating SETVI” value ([5]; 250 g ai/ha) of the same molecule?
**A.** 90

**Q.** And the “phytotoxicity rating SORHA” value ([6]; 63 g ai/ha)?
**A.** 10

**Q.** What about the “phytotoxicity rating SORHA” value ([6]; 250 g ai/ha) of the same molecule?
**A.** 70

**Q.** And the “phytotoxicity rating ECHCG” value ([7]; 63 g ai/ha)?
**A.** 20

**Q.** And the “phytotoxicity rating ECHCG” value ([7]; 250 g ai/ha)?
**A.** 75

**Q.** What about the “phytotoxicity rating ABUTH” value ([8]; 63 g ai/ha) of the same molecule?
**A.** 70

**Q.** And the “phytotoxicity rating ABUTH” value ([8]; 250 g ai/ha)?
**A.** 100

**Q.** And the CASOB phytotoxicity rating ([9]; 63 g ai/ha)?
**A.** 60

**Q.** What about the CASOB phytotoxicity rating ([9]; 250 g ai/ha) of the same molecule?
**A.** 85

**Q.** And the IPOHE phytotoxicity rating ([10]; 63 g ai/ha)?
**A.** 60

**Q.** What about the IPOHE phytotoxicity rating ([10]; 250 g ai/ha) of the same molecule?
**A.** 70

**Q.** And the DIGSA phytotoxicity rating ([11]; 63 g ai/ha)?
**A.** 0

**Q.** What about the DIGSA phytotoxicity rating ([11]; 250 g ai/ha) of the same molecule?
**A.** 0

**Q.** What about the SETVI phytotoxicity rating ([12]; 63 g ai/ha) of the same molecule?
**A.** 0

**Q.** And the SETVI phytotoxicity rating ([12]; 250 g ai/ha)?
**A.** 30

**Q.** What about the ECHCG phytotoxicity rating ([13]; 63 g ai/ha) of the same molecule?
**A.** 0

**Q.** What about the ECHCG phytotoxicity rating ([13]; 250 g ai/ha) of the same molecule?
**A.** 10

**Q.** And the AMARE phytotoxicity rating ([14]; 63 g ai/ha)?
**A.** 75

**Q.** What about the AMARE phytotoxicity rating ([14]; 250 g ai/ha) of the same molecule?
**A.** 90

**Q.** What about the ABUTH phytotoxicity rating ([15]; 63 g ai/ha) of the same molecule?
**A.** 85

**Q.** And the ABUTH phytotoxicity rating ([15]; 250 g ai/ha)?
**A.** 100

**Q.** What about the “phytotoxicity rating CORN (crop damage)” value ([16]; 63 g ai/ha) of the same molecule?
**A.** 0

**Q.** What about the “phytotoxicity rating CORN (crop damage)” value ([16]; 250 g ai/ha) of the same molecule?
**A.** 0

**Q.** And the “phytotoxicity rating RICE (crop damage)” value ([17]; 63 g ai/ha)?
**A.** 20

**Q.** And the “phytotoxicity rating RICE (crop damage)” value ([17]; 250 g ai/ha)?
**A.** 45

**Q.** What about the “phytotoxicity rating AMARE” value ([18]; 63 g ai/ha) of the same molecule?
**A.** 99

**Q.** What about the “phytotoxicity rating AMARE” value ([18]; 250 g ai/ha) of the same molecule?
**A.** 100

**Q.** What about the “CORN phytotoxicity rating (crop damage)” value ([19]; 63 g ai/ha) of the same molecule?
**A.** 40

**Q.** And the “CORN phytotoxicity rating (crop damage)” value ([19]; 250 g ai/ha)?
**A.** 20

**Q.** And the “RICE phytotoxicity rating (crop damage)” value ([20]; 63 g ai/ha)?
**A.** 15

**Q.** And the “RICE phytotoxicity rating (crop damage)” value ([20]; 250 g ai/ha)?
**A.** 35

**Q.** Which results are given for `COc1c(Cl)cc(F)c(-n2c(=O)n3n(c2=O)CCCC3)c1NC(C)=O` [9-5]?
**A.** Pre-emerge Herbicidal Activity CHEAL ([1]; rate 63 g ai/ha): 100; Pre-emerge Herbicidal Activity CHEAL ([1]; rate 250 g ai/ha): 100; Pre-emerge Herbicidal Activity CASOB ([2]; rate 63 g ai/ha): 10; Pre-emerge Herbicidal Activity CASOB ([2]; rate 250 g ai/ha): 80; Pre-emerge Herbicidal Activity IPOHE ([3]; rate 63 g ai/ha): 70; Pre-emerge Herbicidal Activity IPOHE ([3]; rate 250 g ai/ha): 100; Pre-emerge Herbicidal Activity DIGSA ([4]; rate 63 g ai/ha): 10; Pre-emerge Herbicidal Activity DIGSA ([4]; rate 250 g ai/ha): 40; Pre-emerge Herbicidal Activity SETVI ([5]; rate 63 g ai/ha): 20; Pre-emerge Herbicidal Activity SETVI ([5]; rate 250 g ai/ha): 60; Pre-emerge Herbicidal Activity SORHA ([6]; rate 63 g ai/ha): 0; Pre-emerge Herbicidal Activity SORHA ([6]; rate 250 g ai/ha): 20; Pre-emerge Herbicidal Activity ECHCG ([7]; rate 63 g ai/ha): 0; Pre-emerge Herbicidal Activity ECHCG ([7]; rate 250 g ai/ha): 30; Pre-emerge Herbicidal Activity ABUTH ([8]; rate 63 g ai/ha): 100; Pre-emerge Herbicidal Activity ABUTH ([8]; rate 250 g ai/ha): 100; Pre-emerge Herbicidal Activity CORN ([16]; rate 63 g ai/ha): 0; Pre-emerge Herbicidal Activity CORN ([16]; rate 250 g ai/ha): 10; Pre-emerge Herbicidal Activity RICE ([17]; rate 63 g ai/ha): 25; Pre-emerge Herbicidal Activity RICE ([17]; rate 250 g ai/ha): 60; Pre-emerge Herbicidal Activity AMARE ([18]; rate 63 g ai/ha): 100; Pre-emerge Herbicidal Activity AMARE ([18]; rate 250 g ai/ha): 100
